From patent US11793801B2, “Treatment of pain and neurological conditions” (BioCorRx, Inc., priority 2020, dated 2023)
Where two headings read alike, the source gives them in different places.

Columns and labels:
[1] = molecular target: T1, cholinergic muscarinic receptor 1 (Homo sapiens, UniProt P11229); test: in vitro antagonistic activity, muscarinic 1; format: biochemical
T1 sequence (P11229 1-460): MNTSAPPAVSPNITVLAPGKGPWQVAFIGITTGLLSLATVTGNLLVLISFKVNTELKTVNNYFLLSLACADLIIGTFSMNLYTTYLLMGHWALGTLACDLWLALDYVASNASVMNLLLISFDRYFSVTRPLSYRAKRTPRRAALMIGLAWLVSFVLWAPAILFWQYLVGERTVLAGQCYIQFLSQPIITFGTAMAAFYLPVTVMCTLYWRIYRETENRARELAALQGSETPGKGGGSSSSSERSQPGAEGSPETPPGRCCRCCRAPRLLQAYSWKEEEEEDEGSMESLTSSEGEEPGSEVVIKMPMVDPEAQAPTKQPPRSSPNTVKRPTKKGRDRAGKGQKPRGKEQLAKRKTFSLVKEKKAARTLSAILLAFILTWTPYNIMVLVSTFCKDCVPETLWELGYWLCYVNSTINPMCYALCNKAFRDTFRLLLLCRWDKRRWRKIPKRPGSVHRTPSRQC

[2] = molecular target: T2, adrenergic receptor Alpha 2B (Homo sapiens, UniProt P18089); test: in vitro antagonistic activity, adrenergic Alpha 2B; format: biochemical
T2 sequence (P18089 1-450): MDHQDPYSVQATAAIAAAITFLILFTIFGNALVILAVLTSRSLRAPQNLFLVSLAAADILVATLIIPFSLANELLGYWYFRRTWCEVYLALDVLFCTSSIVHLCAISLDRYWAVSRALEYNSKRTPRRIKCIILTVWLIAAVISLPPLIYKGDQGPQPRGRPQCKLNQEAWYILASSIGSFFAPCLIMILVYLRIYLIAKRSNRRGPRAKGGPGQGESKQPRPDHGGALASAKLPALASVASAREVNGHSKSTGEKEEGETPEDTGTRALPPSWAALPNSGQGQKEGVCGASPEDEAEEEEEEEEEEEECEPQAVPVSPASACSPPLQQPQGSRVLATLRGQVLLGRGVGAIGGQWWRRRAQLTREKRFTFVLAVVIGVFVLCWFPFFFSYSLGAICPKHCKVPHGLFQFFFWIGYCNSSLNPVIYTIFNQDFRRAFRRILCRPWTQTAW

[3] = molecular target: cholinergic muscarinic receptor 3 (Homo sapiens, UniProt P20309); test: in vitro antagonistic activity, muscarinic 3; format: biochemical
Sequence of cholinergic muscarinic receptor 3 (P20309 whole entry): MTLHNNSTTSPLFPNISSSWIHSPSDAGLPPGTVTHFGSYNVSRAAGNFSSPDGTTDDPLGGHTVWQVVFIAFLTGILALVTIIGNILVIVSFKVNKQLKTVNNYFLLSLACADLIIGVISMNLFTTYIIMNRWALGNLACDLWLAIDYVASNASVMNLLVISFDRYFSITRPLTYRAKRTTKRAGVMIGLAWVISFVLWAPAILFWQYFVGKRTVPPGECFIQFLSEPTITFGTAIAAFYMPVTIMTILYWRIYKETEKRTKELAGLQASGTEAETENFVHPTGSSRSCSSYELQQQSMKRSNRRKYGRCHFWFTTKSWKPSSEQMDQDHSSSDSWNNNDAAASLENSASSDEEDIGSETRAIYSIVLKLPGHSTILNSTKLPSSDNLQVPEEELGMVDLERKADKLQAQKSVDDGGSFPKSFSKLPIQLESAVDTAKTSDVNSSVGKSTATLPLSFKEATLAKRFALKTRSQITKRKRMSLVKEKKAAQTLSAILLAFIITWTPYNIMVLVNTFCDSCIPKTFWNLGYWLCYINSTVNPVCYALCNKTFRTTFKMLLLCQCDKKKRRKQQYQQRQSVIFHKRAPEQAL

serotonin receptor 1A = molecular target: T3, serotonin receptor 1A (Homo sapiens, UniProt P08908); test: in vitro antagonistic activity, serotonin 1A; format: biochemical
T3 sequence (P08908 1-422): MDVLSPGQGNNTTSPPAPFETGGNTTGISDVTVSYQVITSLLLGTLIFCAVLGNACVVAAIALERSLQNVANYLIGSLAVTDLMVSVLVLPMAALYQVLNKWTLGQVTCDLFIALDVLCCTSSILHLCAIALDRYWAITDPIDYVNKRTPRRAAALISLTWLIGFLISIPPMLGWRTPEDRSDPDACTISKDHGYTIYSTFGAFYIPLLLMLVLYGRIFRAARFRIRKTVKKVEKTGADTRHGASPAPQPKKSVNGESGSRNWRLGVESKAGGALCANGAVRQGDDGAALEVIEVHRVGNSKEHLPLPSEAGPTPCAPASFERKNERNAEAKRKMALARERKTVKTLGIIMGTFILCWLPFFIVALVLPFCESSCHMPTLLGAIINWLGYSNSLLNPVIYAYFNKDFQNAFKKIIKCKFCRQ

[4] = molecular target: T4, adrenergic receptor Alpha 1B (Homo sapiens, UniProt P35368); test: in vitro antagonistic activity, adrenergic Alpha 1B; format: biochemical
T4 sequence (P35368 1-520): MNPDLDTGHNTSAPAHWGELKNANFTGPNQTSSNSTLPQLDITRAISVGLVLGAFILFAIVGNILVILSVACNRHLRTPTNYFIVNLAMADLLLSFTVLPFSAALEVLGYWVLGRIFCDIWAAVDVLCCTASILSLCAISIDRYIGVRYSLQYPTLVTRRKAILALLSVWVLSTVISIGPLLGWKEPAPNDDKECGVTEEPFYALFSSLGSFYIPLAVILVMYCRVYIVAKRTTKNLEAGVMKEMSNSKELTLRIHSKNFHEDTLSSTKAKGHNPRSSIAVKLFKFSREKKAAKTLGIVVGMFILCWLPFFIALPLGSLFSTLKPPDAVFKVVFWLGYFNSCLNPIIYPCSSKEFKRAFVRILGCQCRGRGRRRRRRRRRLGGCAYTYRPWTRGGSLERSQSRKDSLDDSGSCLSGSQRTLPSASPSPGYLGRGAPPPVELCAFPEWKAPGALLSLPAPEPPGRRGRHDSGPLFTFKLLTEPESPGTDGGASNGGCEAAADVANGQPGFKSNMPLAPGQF

dopamine D4 receptor = molecular target: T5, dopamine D4 receptor (Homo sapiens, UniProt P21917); test: in vitro antagonistic activity, dopamine D4; format: biochemical
T5 sequence (P21917 1-419): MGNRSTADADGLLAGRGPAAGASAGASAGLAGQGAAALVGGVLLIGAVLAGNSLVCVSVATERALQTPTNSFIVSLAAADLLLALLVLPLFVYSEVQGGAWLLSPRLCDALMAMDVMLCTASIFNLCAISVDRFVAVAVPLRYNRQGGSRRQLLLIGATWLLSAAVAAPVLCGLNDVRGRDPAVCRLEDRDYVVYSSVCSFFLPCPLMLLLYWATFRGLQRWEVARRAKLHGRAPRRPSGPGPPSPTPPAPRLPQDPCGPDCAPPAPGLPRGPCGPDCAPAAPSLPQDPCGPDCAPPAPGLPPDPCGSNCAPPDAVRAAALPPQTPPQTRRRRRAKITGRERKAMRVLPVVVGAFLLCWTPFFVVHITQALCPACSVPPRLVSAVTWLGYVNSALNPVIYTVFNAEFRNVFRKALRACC

[5] = molecular target: T6, cholinergic muscarinic receptor 5 (Homo sapiens, UniProt P08912); test: in vitro antagonistic activity, muscarinic 5; format: biochemical
T6 sequence (P08912 1-532): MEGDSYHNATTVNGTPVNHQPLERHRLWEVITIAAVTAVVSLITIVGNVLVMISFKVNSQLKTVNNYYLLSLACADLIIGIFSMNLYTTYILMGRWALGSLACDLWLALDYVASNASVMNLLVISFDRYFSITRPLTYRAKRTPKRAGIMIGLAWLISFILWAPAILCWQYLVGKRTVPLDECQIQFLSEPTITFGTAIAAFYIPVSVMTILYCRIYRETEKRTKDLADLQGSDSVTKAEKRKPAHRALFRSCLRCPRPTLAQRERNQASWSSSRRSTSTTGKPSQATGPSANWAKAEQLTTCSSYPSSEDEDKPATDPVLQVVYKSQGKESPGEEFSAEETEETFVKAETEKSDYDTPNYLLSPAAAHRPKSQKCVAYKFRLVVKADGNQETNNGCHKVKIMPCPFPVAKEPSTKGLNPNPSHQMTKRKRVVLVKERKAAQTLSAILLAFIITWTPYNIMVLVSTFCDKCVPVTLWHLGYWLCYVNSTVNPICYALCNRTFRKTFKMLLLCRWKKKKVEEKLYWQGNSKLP

Sigma opiate sites = test: in vitro pharmacology at Sigma sites; format: binding
[6] = molecular target: T7, adrenergic receptor Alpha 2C (Homo sapiens, UniProt P18825); test: in vitro antagonistic activity, adrenergic Alpha 2C; format: biochemical
T7 sequence (P18825 1-462): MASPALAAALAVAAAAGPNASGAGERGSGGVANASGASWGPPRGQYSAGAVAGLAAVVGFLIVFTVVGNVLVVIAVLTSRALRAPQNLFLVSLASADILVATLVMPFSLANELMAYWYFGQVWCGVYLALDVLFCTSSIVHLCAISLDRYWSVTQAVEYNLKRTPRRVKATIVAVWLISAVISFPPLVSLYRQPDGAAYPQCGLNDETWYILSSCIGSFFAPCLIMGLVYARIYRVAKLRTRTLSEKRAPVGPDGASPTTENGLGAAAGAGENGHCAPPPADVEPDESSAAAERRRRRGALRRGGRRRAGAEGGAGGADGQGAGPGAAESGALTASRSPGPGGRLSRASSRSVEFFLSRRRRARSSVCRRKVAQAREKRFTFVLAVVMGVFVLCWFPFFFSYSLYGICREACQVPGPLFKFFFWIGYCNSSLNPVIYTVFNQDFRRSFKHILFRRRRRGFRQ

Delta (DOP) receptor = Delta (DOP) receptor (Homo sapiens, UniProt P41143); test: in vitro pharmacology at Delta (DOP) receptor; format: biochemical
Sequence of Delta (DOP) receptor (P41143 whole entry): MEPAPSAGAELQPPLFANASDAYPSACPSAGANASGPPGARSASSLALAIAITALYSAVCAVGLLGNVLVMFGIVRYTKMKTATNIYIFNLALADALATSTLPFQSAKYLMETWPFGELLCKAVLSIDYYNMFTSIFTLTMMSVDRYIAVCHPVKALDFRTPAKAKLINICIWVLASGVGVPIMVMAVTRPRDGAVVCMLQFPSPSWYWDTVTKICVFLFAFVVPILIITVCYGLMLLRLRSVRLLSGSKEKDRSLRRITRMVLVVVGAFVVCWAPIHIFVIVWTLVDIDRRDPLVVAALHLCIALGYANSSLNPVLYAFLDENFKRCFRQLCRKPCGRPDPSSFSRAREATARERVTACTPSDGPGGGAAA

histamine H1 receptor = histamine H1 receptor (Homo sapiens, UniProt P35367); test: in vitro antagonistic activity, histamine H1; format: biochemical
Sequence of histamine H1 receptor (P35367 whole entry, species assumed): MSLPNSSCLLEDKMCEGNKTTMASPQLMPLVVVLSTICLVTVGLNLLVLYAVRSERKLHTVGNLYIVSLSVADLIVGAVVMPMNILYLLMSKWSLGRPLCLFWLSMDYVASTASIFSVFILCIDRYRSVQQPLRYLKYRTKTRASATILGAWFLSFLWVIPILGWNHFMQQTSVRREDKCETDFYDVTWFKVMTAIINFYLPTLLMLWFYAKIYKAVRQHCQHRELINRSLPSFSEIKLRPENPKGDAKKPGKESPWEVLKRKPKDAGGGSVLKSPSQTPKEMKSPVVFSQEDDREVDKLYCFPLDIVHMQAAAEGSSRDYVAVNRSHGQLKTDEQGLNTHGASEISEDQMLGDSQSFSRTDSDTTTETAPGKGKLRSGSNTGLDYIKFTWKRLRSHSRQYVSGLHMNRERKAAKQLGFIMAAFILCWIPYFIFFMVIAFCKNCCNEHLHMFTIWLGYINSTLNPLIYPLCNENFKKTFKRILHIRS

morphine addicted rats = test: opioid withdrawal signs in morphine addicted rats; format: in vivo
[7] = molecular target: T8, cholinergic muscarinic receptor 4 (Homo sapiens, UniProt P08173); test: in vitro antagonistic activity, muscarinic 4; format: biochemical
T8 sequence (P08173 1-479): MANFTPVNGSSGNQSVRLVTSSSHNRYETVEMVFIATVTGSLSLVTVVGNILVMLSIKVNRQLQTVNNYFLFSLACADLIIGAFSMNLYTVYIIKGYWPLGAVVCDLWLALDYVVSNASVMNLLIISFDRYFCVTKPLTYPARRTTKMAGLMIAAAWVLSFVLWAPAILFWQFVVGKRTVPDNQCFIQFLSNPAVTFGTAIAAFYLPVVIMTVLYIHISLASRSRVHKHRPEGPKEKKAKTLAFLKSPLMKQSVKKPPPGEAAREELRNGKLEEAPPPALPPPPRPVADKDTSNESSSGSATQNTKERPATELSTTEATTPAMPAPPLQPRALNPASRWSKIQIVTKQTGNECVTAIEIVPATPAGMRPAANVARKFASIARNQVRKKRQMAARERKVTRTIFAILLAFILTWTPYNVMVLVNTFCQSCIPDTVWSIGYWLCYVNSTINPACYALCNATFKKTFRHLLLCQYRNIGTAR

| Compound | activity at cholinergic muscarinic receptor 1 [1] | activity at adrenergic receptor Alpha 2B [2] | activity at cholinergic muscarinic receptor 3 [3] | activity at serotonin receptor 1A (serotonin receptor 1A) | activity at adrenergic receptor Alpha 1B [4] | activity at dopamine D4 receptor (dopamine D4 receptor) | activity at cholinergic muscarinic receptor 5 [5] | Receptor Sigma: affinity (Sigma opiate sites) | Receptor Sigma: affinity (Sigma opiate sites; listed as compound 1) | activity at adrenergic receptor Alpha 2C [6] | Receptor Delta (DOP): mode of action (Delta (DOP) receptor) | activity at histamine H1 receptor (histamine H1 receptor) | opioid withdrawal signs (morphine addicted rats) | activity at cholinergic muscarinic receptor 4 [7] |
| --- | --- | --- | --- | --- | --- | --- | --- | --- | --- | --- | --- | --- | --- | --- |
| CCC(=O)NC1CC(C)N(CCc2ccccc2)CC1C (centres unmarked) [Compound 1, N-[2,5-dimethyl-1-(2-phenylethyl)piperidin-4-yl]propanamide] | antagonistic activity | antagonistic activity | antagonistic activity | antagonistic activity | antagonistic activity | antagonistic activity | antagonistic activity | High Affinity | further activity | antagonistic activity | Antagonist | antagonistic activity | few if any opioid withdrawal signs | antagonistic activity |
| C=CCN1CC[C@]23c4c5ccc(O)c4O[C@H]2C(=O)CC[C@@]3(O)[C@H]1C5 [Naloxone, reference compound] |  |  |  |  |  |  |  | Weak |  |  |  |  | withdrawal effects |  |
| O=C1CC[C@@]2(O)[C@H]3Cc4ccc(O)c5c4[C@@]2(CCN3CC2CC2)[C@H]1O5 [Naltrexone, reference compound] |  |  |  |  |  |  |  | Weak |  |  |  |  |  |  |
